Like-named read-outs stand apart in the source and are kept apart here.
Legend:
[1] = tested on: CD45
[2] = target: T1, PTP-PEST (Homo sapiens, UniProt Q05209); assay: PTP-PEST inhibition assay with fluorogenic substrates; format: biochemical; conditions: pH 6.5
T1 sequence (Q05209 2-323): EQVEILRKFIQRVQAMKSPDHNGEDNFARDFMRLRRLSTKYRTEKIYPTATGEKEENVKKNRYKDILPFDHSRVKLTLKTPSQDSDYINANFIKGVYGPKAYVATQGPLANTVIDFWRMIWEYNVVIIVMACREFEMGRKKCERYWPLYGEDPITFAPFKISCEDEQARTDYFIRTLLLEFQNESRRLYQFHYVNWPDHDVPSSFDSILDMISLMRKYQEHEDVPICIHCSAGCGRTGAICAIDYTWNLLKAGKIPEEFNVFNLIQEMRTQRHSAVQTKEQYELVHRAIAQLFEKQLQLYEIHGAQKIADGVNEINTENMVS

[3] = target: T2, CD45 (Homo sapiens, UniProt P08575); assay: CD45 counterscreen; format: biochemical; conditions: read-out: IC50 CD45 (DiFMUP)
T2 sequence (P08575 653-912 limits assumed): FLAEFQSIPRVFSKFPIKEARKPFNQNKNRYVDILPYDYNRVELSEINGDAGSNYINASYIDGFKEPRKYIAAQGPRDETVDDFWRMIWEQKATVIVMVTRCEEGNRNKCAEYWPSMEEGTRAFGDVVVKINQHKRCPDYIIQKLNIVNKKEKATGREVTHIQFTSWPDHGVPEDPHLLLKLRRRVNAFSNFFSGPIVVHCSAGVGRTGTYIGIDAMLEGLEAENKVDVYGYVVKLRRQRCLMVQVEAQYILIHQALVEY

[4] = target: T3, CD45 (Homo sapiens, UniProt P08575); assay: Intracellular CD45 inhibition in JTAg cells, anti-pLck; format: cell-based
T3 sequence (P08575 26-1306): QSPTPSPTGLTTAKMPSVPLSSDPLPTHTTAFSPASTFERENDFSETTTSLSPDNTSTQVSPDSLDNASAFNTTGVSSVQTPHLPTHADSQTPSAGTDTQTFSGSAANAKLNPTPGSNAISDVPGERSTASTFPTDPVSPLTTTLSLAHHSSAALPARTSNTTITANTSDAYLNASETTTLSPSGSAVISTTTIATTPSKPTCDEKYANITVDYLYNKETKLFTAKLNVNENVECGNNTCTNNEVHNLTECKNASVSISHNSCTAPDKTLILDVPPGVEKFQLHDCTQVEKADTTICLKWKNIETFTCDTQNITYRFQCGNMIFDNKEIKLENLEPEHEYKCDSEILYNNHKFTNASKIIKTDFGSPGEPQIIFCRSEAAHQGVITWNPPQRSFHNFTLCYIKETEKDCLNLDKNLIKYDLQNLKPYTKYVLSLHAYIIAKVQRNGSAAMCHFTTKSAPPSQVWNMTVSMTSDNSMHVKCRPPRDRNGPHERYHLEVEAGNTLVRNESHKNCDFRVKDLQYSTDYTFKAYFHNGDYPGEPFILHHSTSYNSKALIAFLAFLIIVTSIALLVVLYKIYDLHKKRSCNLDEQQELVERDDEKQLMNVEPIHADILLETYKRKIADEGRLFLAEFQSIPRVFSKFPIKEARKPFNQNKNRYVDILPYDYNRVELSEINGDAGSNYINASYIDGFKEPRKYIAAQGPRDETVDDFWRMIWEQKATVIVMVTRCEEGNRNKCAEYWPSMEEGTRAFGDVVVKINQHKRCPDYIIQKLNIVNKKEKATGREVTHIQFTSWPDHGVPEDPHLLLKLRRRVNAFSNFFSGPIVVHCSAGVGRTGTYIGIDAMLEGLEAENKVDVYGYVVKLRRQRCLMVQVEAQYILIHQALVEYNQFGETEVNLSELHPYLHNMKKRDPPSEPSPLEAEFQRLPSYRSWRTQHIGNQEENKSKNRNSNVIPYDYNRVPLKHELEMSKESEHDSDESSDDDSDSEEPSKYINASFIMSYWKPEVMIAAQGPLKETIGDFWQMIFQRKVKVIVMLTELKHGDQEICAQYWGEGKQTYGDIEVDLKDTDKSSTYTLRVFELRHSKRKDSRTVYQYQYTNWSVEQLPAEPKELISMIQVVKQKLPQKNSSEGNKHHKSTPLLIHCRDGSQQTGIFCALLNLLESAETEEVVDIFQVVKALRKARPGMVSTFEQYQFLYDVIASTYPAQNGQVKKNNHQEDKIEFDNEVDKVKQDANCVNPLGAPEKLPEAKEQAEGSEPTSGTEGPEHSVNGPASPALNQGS

[5] = tested on: LYP; assay: Intracellular LYP inhibition in JTAg cells, anti-pLck; format: cell-based, human
[6] = target: T4, HePTP (Homo sapiens, UniProt P35236); assay: HePTP counterscreen; format: biochemical; conditions: read-out: IC50 HePTP (DiFMUP)
T4 sequence (P35236 65-360): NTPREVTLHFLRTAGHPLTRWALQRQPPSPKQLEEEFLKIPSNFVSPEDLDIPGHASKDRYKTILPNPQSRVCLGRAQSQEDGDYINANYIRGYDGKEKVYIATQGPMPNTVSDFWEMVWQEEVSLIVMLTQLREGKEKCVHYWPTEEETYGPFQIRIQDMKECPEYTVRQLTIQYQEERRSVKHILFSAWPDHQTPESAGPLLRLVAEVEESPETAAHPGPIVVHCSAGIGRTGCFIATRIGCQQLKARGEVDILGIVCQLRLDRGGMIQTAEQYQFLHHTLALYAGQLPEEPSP

[7] = tested on: LYP
[8] = target: T5, LYP (Homo sapiens, UniProt Q9Y2R2); assay: LYP inhibition assay with fluorogenic substrates; format: biochemical; conditions: for IC50: pH 6.5
T5 sequence (Q9Y2R2 2-309): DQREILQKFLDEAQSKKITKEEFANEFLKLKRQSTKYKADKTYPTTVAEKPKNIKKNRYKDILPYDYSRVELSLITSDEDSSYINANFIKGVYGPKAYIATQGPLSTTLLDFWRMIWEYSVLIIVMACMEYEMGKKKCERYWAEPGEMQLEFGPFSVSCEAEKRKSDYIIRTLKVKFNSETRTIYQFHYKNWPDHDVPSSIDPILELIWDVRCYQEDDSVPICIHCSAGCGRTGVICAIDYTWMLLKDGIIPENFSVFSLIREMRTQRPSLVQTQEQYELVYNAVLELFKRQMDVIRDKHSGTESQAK

## [Cl][Au][PH](c1ccccc1)(c1ccccc1)c1ccccn1 [Compound 17, Diphenyl-2-pyridylphosphine-Au(I)-Cl]
[1]
  CD45 activity in primary mouse thymocytes (pLck Tyr505): not CD45 activity
[2]; read-out: IC50 PEST (DiFMUP)
  IC50: 76 ± 3 µM
[2]; read-out: IC50 PEST (peptide 1)
  IC50: 43 ± 3 µM
[3]
  IC50: > 150 µM
[4]
  phosphorylation of Lck at Y505 (CD45 activity in cells): no change in phosphorylation levels at position Y505
[5]
  phosphorylation of Lck at Y394 (LYP activity in cells): increase in phosphorylation at Y394
[6]
  IC50: 35 ± 2 µM
[7]
  LYP activity in primary mouse thymocytes (pLck Tyr394): appears to inhibit LYP activity
[8]
  LYP versus PTP-PEST inhibition in comparative library screen: more potent inhibitors of LYP than PTP-PEST regardless of the substrate used
  selectivity for LYP over PTP-PEST in dose-response screens: selective for LYP over the ~ 70% identical PTP-PEST
[8]; read-out: IC50 LYP (DiFMUP)
  IC50: 5 ± 0.2 µM
[8]; read-out: IC50 LYP (peptide 1)
  IC50: 1.5 ± 0.3 µM

Reference: PMC2801581 (Journal of medicinal chemistry, 2009)
